According to patent publication EP4534528A1, “NOVEL SULFANONE DERIVATIVE OR PHARMACEUTICALLY ACCEPTABLE SALT THEREOF, AND USE THEREOF” (Korea Institute of Science and Technology, priority 2022, dated 2023):
Counter-ions that a name gives are not always drawn. Like-named read-outs stand apart in the source and are kept apart here.

What was measured:
in vitro = in vitro ADME, Human; details: for remaining at 0.5 h, 1 µM: human, pH 6.4, liver microsomes 0.5 mg/mL, 30 minutes at 37°C
[1] = Metabolic stability in liver microsomes; format: in vitro ADME; details: mouse, pH 6.4, 30 minutes at 37°C
[2] = Metabolic stability in liver microsomes; format: in vitro ADME; details: rat, pH 6.4, 30 minutes at 37°C
Experimental: Then, an NADPH regeneration system solution was added thereto and the mixed solution was incubated at 37°C for 30 minutes. […]

NO (nitric oxide) = NO (nitric oxide) inhibitory activity in LPS-treated BV-2 microglial cells; format: cell-based, mouse; details: for activity at 0.1 µM / activity at 1 µM / activity at 10 µM: Mus musculus; for activity at 0.1 µM: read-out: Amount of NO (% of control) 0.1 µM; for activity at 1 µM: read-out: Amount of NO (% of control) 1 µM; for activity at 10 µM: read-out: Amount of NO (% of control) 10 µM
Nrf2 = Nrf2 functional cell-based assay (DiscoveRx); details: U2OS cells, incubated for 6 hours, luminescence; read-out: Nrf2 activation EC50
U2OS cells = details: known from the literature; cited from earlier work
[3] = background statement; cited from earlier work
[4] = not told; cited from earlier work
[5] = 10 µM compound, BV-2 cells, LPS 1 µg/ml, 24 hours

**Q.** Which remaining at 0.5 h, 1 µM (in vitro) does the source give for `O=S(=O)(/C=C/c1ncccc1Cl)c1ccccc1Cl` here?
**A.** 66%

**Q.** What about the remaining at 0.5 h, 1 µM [1] of the same compound?
**A.** 4.5%

**Q.** With `O=S(=O)(/C=C/c1ncccc1Cl)c1ccccc1F` as the compound, how does the remaining at 0.5 h, 1 µM (in vitro) read?
**A.** 72%

**Q.** What about the remaining at 0.5 h, 1 µM [1] of the same compound?
**A.** 19%

**Q.** And the remaining at 0.5 h, 1 µM [2]?
**A.** 23%

**Q.** Which “amount of drug remaining after incubation with microsomes (in words)” value (in vitro; 30 minutes) does the source give for `COc1ccc(S(=N)(=O)/C=C/c2ccccn2)cc1` (stereo not drawn) [Compound 1-2, (E)-imino(4-methoxyphenyl)(2-(pyridin-2-yl)vinyl)-λ^6-sulfanone] here?
**A.** remained at a high concentration

**Q.** And the remaining at 0.5 h, 1 µM (in vitro)?
**A.** 76%

**Q.** And the remaining at 0.5 h, 1 µM [1]?
**A.** 59%

**Q.** Which results are given for `N=S(=O)(/C=C/c1ncccc1F)c1ccccc1Cl` (stereo not drawn) [Compound 1-3, (E)-(2-chlorophenyl)(2-(3-fluoropyridin-2-yl)vinyl)(imino)-λ^6-sulfanone]?
**A.** activity at 0.1 µM (NO (nitric oxide); BV-2, 24 h): 90.9%; activity at 1 µM (NO (nitric oxide); BV-2, 24 h): 51.4%; activity at 10 µM (NO (nitric oxide); BV-2, 24 h): < 3%

**Q.** With `COc1cccc(S(=N)(=O)/C=C/c2ncccc2F)c1` (stereo not drawn) [Compound 1-7, (E)-(2-(3-fluoropyridin-2-yl)vinyl)(imino)(3-methoxyphenyl)-λ^6-sulfanone] as the compound, how does the activity at 10 µM (NO (nitric oxide); BV-2, 24 h) read?
**A.** 1.48%

**Q.** With `N=S(=O)(/C=C/c1cccnc1)c1ccccc1Cl` (stereo not drawn) [Compound 1-12, (E)-(2-chlorophenyl)(imino)(2-(pyridin-3-yl)vinyl)-λ^6-sulfanone] as the compound, how does the activity at 10 µM (NO (nitric oxide); [5]) read?
**A.** 24.8%

**Q.** Which EC50 (Nrf2) does the source give for `C[Si](C)(C)N=S(=O)(/C=C/c1ccccc1Cl)c1ccncc1F` (stereo not drawn) [Compound 1-46, (E)-(2-chlorostyryl)(3-fluoropyridin-4-yl)((trimethylsilyl)imino)-λ^6-sulfanone] here?
**A.** 120 nM

**Q.** For `COc1ccccc1S(=O)(/C=C/c1ccccc1Cl)=NC#N` (stereo not drawn) [Compound 1-57, (E)-N-((2-chlorostyryl)(2-methoxyphenyl)(oxo)-λ^6-sulfanylidene)cyanamide], which EC50 (Nrf2) is on record?
**A.** 75 nM

**Q.** With `COC(=O)/C=C/C(=O)OC` [DMF, Dimethyl fumarate] as the compound, how does the EC50 (Nrf2) read?
**A.** 4330 nM

**Q.** Which activity at 0.1 µM (NO (nitric oxide); 0.1 µM compound, BV-2 cells, LPS 1 µg/ml, 24 hours) does the source give for `C[S+]([O-])CCCCN=C=S` (stereo not drawn) [Sulforaphane, 1-isothiocyanato-4-methylsulfinylbutane] here?
**A.** 107%

**Q.** And the activity at 1 µM (NO (nitric oxide); 1 µM compound, BV-2 cells, LPS 1 µg/ml, 24 hours)?
**A.** 79.9%

**Q.** What about the activity at 10 µM (NO (nitric oxide); [5]) of the same compound?
**A.** 14.9%

**Q.** What about the “concentrations at which high toxicity is exhibited” value (U2OS cells) of the same compound?
**A.** ≥ 5 µM

**Q.** What about the “time until it disappears when administered to the body” value [3] of the same compound?
**A.** ≤ 1 h

**Q.** And the blood-brain barrier permeability [4]?
**A.** very low

**Q.** What does the source list for “(E)-(2-chlorophenyl)(imino)(2-(2,4,6-trichloropyrimidin-5-yl)vinyl)-λ^6-sulfanone [Compound 1-14]”?
**A.** EC50 (Nrf2): 3280 nM; Amount of NO (% of control) 10 µM (NO (nitric oxide); [5]): < 3.00 % of control
